Results published in PubChem BioAssay AID328 (DTP/NCI, 2004).
“And” between values parts separate entries of the source, which are not always exact repeats. Equal entries are not always repeated. Toxic doses and inconclusive results are not listed.

Tested on: BDF1 mice, P388 leukemia ip, median survival T/C
Assay: NCI In Vivo Anticancer Drug Screen. Data for tumor model P388 Leukemia (intraperitoneal) in B6D2F1 (BDF1) mice
Conditions: endpoint: median survival time, higher = longer survival
Outline: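 Mice carrying the transplantable tumour receive compound or vehicle. Survival is followed in each arm, and the treated measure is divided by the vehicle measure.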

[1] = dose: 50.0 mg/kg/injection, schedule: Q01DX009 (ip), vehicle: saline with Tween-80
[2] = dose: 100.0 mg/kg/injection, schedule: Q01DX009 (ip), vehicle: saline with Tween-80
[3] = dose: 200.0 mg/kg/injection, schedule: Q01DX009 (ip), vehicle: saline with Tween-80
[4] = dose: 100.0 mg/kg/injection, schedule: Q04DX003 (ip), vehicle: saline
[5] = dose: 200.0 mg/kg/injection, schedule: Q04DX003 (ip), vehicle: saline
[6] = dose: 25.0 mg/kg/injection, schedule: Q01DX009 (ip), vehicle: saline with Tween-80
[7] = dose: 6.25 mg/kg/injection, schedule: Q01DX009 (ip), vehicle: saline with Tween-80
[8] = dose: 12.5 mg/kg/injection, schedule: Q01DX009 (ip), vehicle: saline with Tween-80
[9] = dose: 1.0 mg/kg/injection, schedule: Q01DX009 (ip), vehicle: saline
[10] = dose: 100.0 mg/kg/injection, schedule: Q01DX009 (ip), vehicle: Klucel (hydroxypropylcellulose) (HPC)
[11] = dose: 200.0 mg/kg/injection, schedule: Q01DX009 (ip), vehicle: Klucel (hydroxypropylcellulose) (HPC)

CCOC(=O)C1CNc2ccccc2N1 (centres undefined)
T/C (dose: 7.18 mg/kg/injection, schedule: Q04DX003 (ip), vehicle: Klucel (hydroxypropylcellulose) (HPC)): 110 % of control
T/C (dose: 14.37 mg/kg/injection, schedule: Q04DX003 (ip), vehicle: Klucel (hydroxypropylcellulose) (HPC)): 105 % of control
T/C (dose: 28.75 mg/kg/injection, schedule: Q01DX001 (ip), vehicle: Klucel (hydroxypropylcellulose) (HPC)): 91 % of control
T/C (dose: 28.75 mg/kg/injection, schedule: Q04DX003 (ip), vehicle: Klucel (hydroxypropylcellulose) (HPC)): 105 % of control
T/C (dose: 57.5 mg/kg/injection, schedule: Q01DX001 (ip), vehicle: Klucel (hydroxypropylcellulose) (HPC)): 95 % of control
T/C (dose: 57.5 mg/kg/injection, schedule: Q04DX003 (ip), vehicle: Klucel (hydroxypropylcellulose) (HPC)): 109 % of control
T/C (dose: 75.0 mg/kg/injection, schedule: Q01DX009 (ip), vehicle: Klucel (hydroxypropylcellulose) (HPC)): 105 % of control
T/C (dose: 115.0 mg/kg/injection, schedule: Q01DX001 (ip), vehicle: Klucel (hydroxypropylcellulose) (HPC)): 91 % of control
T/C (dose: 115.0 mg/kg/injection, schedule: Q01DX009 (ip), vehicle: Klucel (hydroxypropylcellulose) (HPC)): 110 % of control
T/C (dose: 115.0 mg/kg/injection, schedule: Q04DX003 (ip), vehicle: Klucel (hydroxypropylcellulose) (HPC)): 95 % of control
T/C (dose: 170.0 mg/kg/injection, schedule: Q01DX001 (ip), vehicle: Klucel (hydroxypropylcellulose) (HPC)): 104 % of control

COC(=O)CC12CC3(C)CC(C)(C1)CC(CC(=O)OC)(C3)C2
T/C [1]: 102 % of control
T/C [2]: 102 % of control
T/C [3]: 117 % of control

C=C1CC2(CCC(C(C)(C)C)CC2)OC1=O (centres undefined)
T/C (dose: 100.0 mg/kg/injection, schedule: Q04DX002 (ip), vehicle: saline with Tween-80): 105 % of control
T/C (dose: 200.0 mg/kg/injection, schedule: Q04DX002 (ip), vehicle: saline with Tween-80): 108 % of control
T/C (dose: 400.0 mg/kg/injection, schedule: Q04DX002 (ip), vehicle: saline with Tween-80): 97 % of control

N#CCN1CCOCC1
T/C (dose: 75.0 mg/kg/injection, schedule: Q01DX009 (ip), vehicle: saline): 104 % of control
T/C [4]: 104 % of control
T/C (dose: 150.0 mg/kg/injection, schedule: Q01DX009 (ip), vehicle: saline): 95 % of control
T/C [5]: 104 % of control

CC1(C)OC(COCCOCCO)C(COCCOCCO)O1 (centres undefined)
T/C [4]: 96 % of control
T/C [5]: 103 % of control
T/C (dose: 400.0 mg/kg/injection, schedule: Q04DX003 (ip), vehicle: saline): 96 % of control

CCC(c1ccc2cc(OC)ccc2c1)C(C(=O)O)C(=O)O (centres undefined)
T/C (dose: 50.0 mg/kg/injection, schedule: Q04DX003 (ip), vehicle: Klucel (hydroxypropylcellulose) (HPC)): 87 % of control

COc1ccc(C(C)c2ccccc2)cc1 (centres undefined)
T/C (dose: 100.0 mg/kg/injection, schedule: Q04DX003 (ip), vehicle: saline with Tween-80): 110 % of control
T/C (dose: 200.0 mg/kg/injection, schedule: Q04DX003 (ip), vehicle: saline with Tween-80): 105 % of control
T/C (dose: 400.0 mg/kg/injection, schedule: Q04DX003 (ip), vehicle: saline with Tween-80): 100 % of control

COc1cccc(C2NC(=O)c3c(n[nH]c3N)S2)c1O (centres undefined)
T/C [1]: 103 % of control
T/C [2]: 99 % of control
T/C [3]: 103 % of control

Clc1ccc(-c2cc(=[N+]3CC[N+](=c4cc(-c5ccc(Cl)cc5)ss4)CC3)ss2)cc1
T/C (dose: 50.0 mg/kg/injection, schedule: Q04DX003 (ip), vehicle: water): 109 % of control
T/C (dose: 100.0 mg/kg/injection, schedule: Q01DX009 (ip), vehicle: water): 121 % of control
T/C (dose: 100.0 mg/kg/injection, schedule: Q04DX003 (ip), vehicle: water): 116 % of control
T/C (dose: 200.0 mg/kg/injection, schedule: Q01DX009 (ip), vehicle: water): 111 % of control
T/C (dose: 200.0 mg/kg/injection, schedule: Q04DX003 (ip), vehicle: water): 109 % of control

Cc1cc(=O)c2c(C)cccc2[nH]1
T/C (dose: 6.25 mg/kg/injection, schedule: Q04DX003 (ip), vehicle: saline sonified): 104 % of control
T/C (dose: 12.5 mg/kg/injection, schedule: Q04DX003 (ip), vehicle: saline sonified): 109 % of control
T/C [6]: 113 % of control
T/C (dose: 25.0 mg/kg/injection, schedule: Q04DX003 (ip), vehicle: saline sonified): 100 % of control

S=C1SCN(CCc2ccccc2)CN1CCc1ccccc1
T/C [7]: 111 % of control
T/C [8]: 102 % of control
T/C [6]: 104 % of control
T/C [1]: 100 % of control

CC(=O)OC(C)(C)/C=C/C(=O)[C@](C)(O)[C@H]1[C@H](O)C[C@@]2(C)[C@@H]3CC=C4[C@@H](C=C(O)C(=O)C4(C)C)[C@]3(C)C(=O)C[C@]12C
T/C [9]: 100 % of control
T/C (dose: 2.0 mg/kg/injection, schedule: Q01DX009 (ip), vehicle: saline): 110 % of control

Cc1ccc(NO)c(C)c1
T/C (dose: 50.0 mg/kg/injection, schedule: Q01DX005 (ip), vehicle: saline with Tween-80): 113 % of control
T/C (dose: 100.0 mg/kg/injection, schedule: Q01DX005 (ip), vehicle: saline with Tween-80): 108 % of control

O=C(N/N=C/C=C/c1ccccc1)[C@H](O)[C@@H](O)C(=O)N/N=C/C=C/c1ccccc1
T/C [10]: 88 % of control
T/C [11]: 96 % of control
T/C (dose: 400.0 mg/kg/injection, schedule: Q01DX009 (ip), vehicle: Klucel (hydroxypropylcellulose) (HPC)): 92 % of control

N#CC(C#N)=C1SCS1
T/C (dose: 3.12 mg/kg/injection, schedule: Q01DX009 (ip), vehicle: saline with Tween-80): 123 % of control
T/C [7]: 123 % of control

COC(=O)/C(=C1/OC(=O)C(c2ccccc2)=C1O)c1ccccc1
T/C [7]: 100 % of control
T/C (dose: 11.0 mg/kg/injection, schedule: Q01DX009 (ip), vehicle: saline with Tween-80): 115 % of control
T/C [8]: 90 % of control
T/C (dose: 16.5 mg/kg/injection, schedule: Q01DX009 (ip), vehicle: saline with Tween-80): 105 % of control
T/C [6]: 109 % of control and 112 % of control
T/C (dose: 37.5 mg/kg/injection, schedule: Q01DX009 (ip), vehicle: saline with Tween-80): 95 % of control
T/C [1]: 100 % of control

O=C(/C=C/c1c(Cl)cccc1Cl)c1ccccc1
T/C (dose: 50.0 mg/kg/injection, schedule: Q01DX009 (ip), vehicle: Klucel (hydroxypropylcellulose) (HPC)): 97 % of control
T/C [10]: 105 % of control
T/C [11]: 97 % of control

Oc1cc(O)c(CN(CCCl)CCCl)cc1CN(CCCl)CCCl
T/C [9]: 118 % of control
T/C (dose: 1.5 mg/kg/injection, schedule: Q01DX009 (ip), vehicle: saline): 118 % of control
T/C (dose: 2.4 mg/kg/injection, schedule: Q01DX009 (ip), vehicle: saline): 157 % of control
T/C (dose: 3.6 mg/kg/injection, schedule: Q01DX009 (ip), vehicle: saline): 182 % of control
T/C (dose: 5.4 mg/kg/injection, schedule: Q01DX009 (ip), vehicle: saline): 166 % of control
T/C (dose: 5.5 mg/kg/injection, schedule: Q01DX009 (ip), vehicle: saline): 168 % of control
T/C (dose: 8.2 mg/kg/injection, schedule: Q01DX009 (ip), vehicle: saline): 176 % of control
T/C (dose: 8.25 mg/kg/injection, schedule: Q01DX009 (ip), vehicle: saline): 165 % of control and 180 % of control
T/C (dose: 9.9 mg/kg/injection, schedule: Q04DX003 (ip), vehicle: saline): 163 % of control
T/C (dose: 15.0 mg/kg/injection, schedule: Q04DX003 (ip), vehicle: saline): 220 % of control
T/C (dose: 16.0 mg/kg/injection, schedule: Q01DX009 (ip), vehicle: saline): 194 % of control
T/C (dose: 18.75 mg/kg/injection, schedule: Q01DX009 (ip), vehicle: saline): 195 % of control and 200 % of control
T/C (dose: 23.0 mg/kg/injection, schedule: Q04DX003 (ip), vehicle: saline): 160 % of control
T/C (dose: 25.0 mg/kg/injection, schedule: Q01DX009 (ip), vehicle: saline): 162 % of control and 202 % of control and 222 % of control
T/C (dose: 35.0 mg/kg/injection, schedule: Q01DX009 (ip), vehicle: saline): 185 % of control
T/C (dose: 35.0 mg/kg/injection, schedule: Q04DX003 (ip), vehicle: saline): 190 % of control and 200 % of control
T/C (dose: 50.0 mg/kg/injection, schedule: Q01DX009 (ip), vehicle: saline): 150 % of control
T/C (dose: 55.0 mg/kg/injection, schedule: Q04DX003 (ip), vehicle: saline): 250 % of control and 212 % of control
T/C (dose: 80.0 mg/kg/injection, schedule: Q04DX003 (ip), vehicle: saline): 250 % of control and 208 % of control
T/C (dose: 100.0 mg/kg/injection, schedule: Q01DX009 (ip), vehicle: saline): 86 % of control
T/C (dose: 200.0 mg/kg/injection, schedule: Q01DX009 (ip), vehicle: saline): 177 % of control
